Drawing on US20260271933A1 (priority 2023, published 2026), this text covers pest or weed control and inhibition of growth for 28 compounds.

The test system of one assay is Phytophthora infestans. Put plainly: whole plant or invertebrate. It is filed as in vivo. The following applies: in Solanum lycopersicum, foliar, read-out: control of Phytophthora infestans.
For the next assay, the system named is Pythium ultimum. Put plainly: Pythium ultimum / liquid culture (seedling damping off). It is filed as cell-based. The following applies: Globisporangium ultimum, growth inhibition determined photometrically, compared to untreated control. The procedure: Pythium ultimum/Liquid Culture (Seedling Damping Off)
Mycelia fragments and oospores of a newly grown liquid culture of the fungus are directly mixed into nutrient broth (PDB potato dextrose broth). After placing a (DMSO) solution of test compound into a microtiter plate (96-well format), the nutrient broth containing the fungal mycelia/spore mixture is added.
The test plates are incubated at 24° C. and the inhibition of growth is determined photometrically 2-3 days after application.

A further assay has as its system Plasmopara viticola. The experiment in a line: whole plant or invertebrate. To be noted: foliar. The assay is classed as in vivo.

A value given as a limit tells only on which side of the number the result lay.

One may read the inhibition of growth as the relative decrease from the control value, in per cent. Low readings indicate a weak effect, high ones a strong effect. In the case of `COC(=O)Nc1ccc(-c2cnc3ccc(C(=O)N(C)c4cc(F)ccc4F)cn23)cn1` [Compound 54, methyl N-[5-[6-[(2,5-difluorophenyl)-methyl-carbamoyl]imidazo[1,2-a]pyridin-3-yl]-2-pyridyl]carbamate], the pest or weed control at 200 ppm with Phytophthora infestans is at least 80%. The compound further yielded an inhibition of growth at 20 ppm with Pythium ultimum of at least 80%.
The compound `COC(=O)Nc1ccc(-c2cnc3ccc(C(=O)N4CC(C)Cc5ccccc54)cn23)cn1` (stereo not drawn) [Compound 8, methyl N-[5-[6-(3-methyl-3,4-dihydro-2H-quinoline-1-carbonyl)imidazo[1,2-a]pyridin-3-yl]-2-pyridyl]carbamate] had an inhibition of growth at 20 ppm with Pythium ultimum of at least 80%.
Consider `COC(=O)Nc1ccc(-c2cnc3ccc(C(=O)N4c5ccccc5CCC4C)cn23)cn1` (stereo not drawn) [Compound 14, methyl N-[5-[6-(2-methyl-3,4-dihydro-2H-quinoline-1-carbonyl)imidazo[1,2-a]pyridin-3-yl]-2-pyridyl]carbamate], for which the inhibition of growth at 20 ppm with Pythium ultimum is at least 80%.
On the same count and under the same terms, then `COC(=O)Nc1ccc(-c2cnc3ccc(C(=O)N(C)c4cc(Cl)ccc4C)cn23)cn1` [Compound 47, methyl N-[5-[6-[(5-chloro-2-methyl-phenyl)-methyl-carbamoyl]imidazo[1,2-a]pyridin-3-yl]-2-pyridyl]carbamate], with at least 80%.
As to `COC(=O)Nc1ccc(-c2cnc3ccc(C(=O)N4CC(OC)Cc5ccccc54)cn23)cn1` (stereo not drawn) [Compound 32, methyl N-[5-[6-(3-methoxy-3,4-dihydro-2H-quinoline-1-carbonyl)imidazo[1,2-a]pyridin-3-yl]-2-pyridyl]carbamate], the pest or weed control at 200 ppm in the assay on Phytophthora infestans is at least 80%. In the assay on Pythium ultimum, this compound showed an inhibition of growth at 20 ppm of at least 80%.
With `COC(=O)Nc1ccc(-c2cnc3c(C)cc(C(=O)N4CCOc5cc(F)ccc54)cn23)cn1` [Compound 5, methyl N-[5-[6-(7-fluoro-2,3-dihydro-1,4-benzoxazine-4-carbonyl)-8-methyl-imidazo[1,2-a]pyridin-3-yl]-2-pyridyl]carbamate], the pest or weed control at 200 ppm with Phytophthora infestans was at least 80%. The inhibition of growth at 20 ppm in the assay on Pythium ultimum was at least 80%.
On to `CCN(C(=O)c1ccc2ncc(-c3ccc(NC(=O)OC)nc3)n2c1)c1ccccc1C(=O)OC` [Compound 59, methyl 2-[ethyl-[3-[6-(methoxycarbonylamino)-3-pyridyl]imidazo[1,2-a]pyridine-6-carbonyl]amino]benzoate], for which, in the assay with Phytophthora infestans, the pest or weed control at 200 ppm was at least 80%.
`COC(=O)Nc1ccc(-c2cnc3ccc(C(=O)N4CCCc5c(C)cccc54)cn23)cn1` [Compound 27, methyl N-[5-[6-(5-methyl-3,4-dihydro-2H-quinoline-1-carbonyl)imidazo[1,2-a]pyridin-3-yl]-2-pyridyl]carbamate]: the pest or weed control at 200 ppm in the assay on Phytophthora infestans was at least 80%. Also, the inhibition of growth at 20 ppm with Pythium ultimum is at least 80%.
`COC(=O)Nc1ccc(-c2cnc3ccc(C(=O)N4CCCc5c4ccc(C)c5F)cn23)cn1` [Compound 28, methyl N-[5-[6-(5-fluoro-6-methyl-3,4-dihydro-2H-quinoline-1-carbonyl)imidazo[1,2-a]pyridin-3-yl]-2-pyridyl]carbamate] had an inhibition of growth at 20 ppm with Pythium ultimum of at least 80%.
On to `COC(=O)Nc1ccc(-c2cnc3ccc(C(=O)N(C)c4cccc(F)c4OC)cn23)cn1` [Compound 12, methyl N-[5-[6-[(3-fluoro-2-methoxy-phenyl)-methyl-carbamoyl]imidazo[1,2-a]pyridin-3-yl]-2-pyridyl]carbamate], for which the pest or weed control at 200 ppm in the assay with Phytophthora infestans was at least 80%. Also, the inhibition of growth at 20 ppm in the assay with Pythium ultimum is at least 80%.
Turning to `COC(=O)Nc1ccc(-c2cnc3ccc(C(=O)N4CC(O)Cc5cc(F)ccc54)cn23)cn1` (stereo not drawn) [Compound 24, methyl N-[5-[6-(6-fluoro-3-hydroxy-3,4-dihydro-2H-quinoline-1-carbonyl)imidazo[1,2-a]pyridin-3-yl]-2-pyridyl]carbamate], the pest or weed control at 200 ppm in the assay on Phytophthora infestans is at least 80%. The compound also displayed an inhibition of growth at 20 ppm in the assay on Pythium ultimum of at least 80%.
With `COC(=O)Nc1ccc(-c2cnc3c(C)cc(C(=O)N(C)c4cccc5c4OCC5)cn23)cn1` [Compound 1, methyl N-[5-[6-[2,3-dihydrobenzofuran-7-yl(methyl)carbamoyl]-8-methyl-imidazo[1,2-a]pyridin-3-yl]-2-pyridyl]carbamate], the pest or weed control at 200 ppm in the assay on Plasmopara viticola is at least 80%.
In the assay with Pythium ultimum, `COC(=O)Nc1ccc(-c2cnc3ccc(C(=O)N4CCCc5c(F)cccc54)cn23)cn1` [Compound 13, methyl N-[5-[6-(5-fluoro-3,4-dihydro-2H-quinoline-1-carbonyl)imidazo[1,2-a]pyridin-3-yl]-2-pyridyl]carbamate] yielded an inhibition of growth at 20 ppm of at least 80%.
Still for that read-out and setting: the value for `COC(=O)Nc1ccc(-c2cnc3ccc(C(=O)N4CCCc5cc(Cl)ccc54)cn23)cn1` [Compound 48, methyl N-[5-[6-(6-chloro-3,4-dihydro-2H-quinoline-1-carbonyl)imidazo[1,2-a]pyridin-3-yl]-2-pyridyl]carbamate] was at least 80%.
Take `COC(=O)Nc1ccc(-c2cnc3ccc(C(=O)N(C)c4ccccc4C(=O)OC)cn23)cn1` [Compound 46, methyl 2-[[3-[6-(methoxycarbonylamino)-3-pyridyl]imidazo[1,2-a]pyridine-6-carbonyl]-methyl-amino]benzoate]: the pest or weed control at 200 ppm with Phytophthora infestans is at least 80%. This compound gave an inhibition of growth at 20 ppm with Pythium ultimum of at least 80%.
Take `COC(=O)Nc1ccc(-c2cnc3ccc(C(=O)N(C)c4cc(Cl)ccc4OC)cn23)cn1` [Compound 61, methyl N-[5-[6-[(5-chloro-2-methoxy-phenyl)-methyl-carbamoyl]imidazo[1,2-a]pyridin-3-yl]-2-pyridyl]carbamate]: in the assay on Pythium ultimum, the inhibition of growth at 20 ppm was at least 80%.
For the compound `COC(=O)Nc1ccc(-c2cnc3ccc(C(=O)N(C)c4ccc(Cl)cc4F)cn23)cn1` [Compound 53, methyl N-[5-[6-[(4-chloro-2-fluoro-phenyl)-methyl-carbamoyl]imidazo[1,2-a]pyridin-3-yl]-2-pyridyl]carbamate], the inhibition of growth at 20 ppm with Pythium ultimum was at least 80%.
Consider `COC(=O)Nc1ccc(-c2cnc3ccc(C(=O)N4CCCc5c4ccc(F)c5OC)cn23)cn1` [Compound 62, methyl N-[5-[6-(6-fluoro-5-methoxy-3,4-dihydro-2H-quinoline-1-carbonyl)imidazo[1,2-a]pyridin-3-yl]-2-pyridyl]carbamate], for which the pest or weed control at 200 ppm in the assay on Phytophthora infestans is at least 80%. For the same compound, in the assay on Pythium ultimum, the inhibition of growth at 20 ppm is at least 80%.
Consider `COC(=O)Nc1ccc(-c2cnc3ccc(C(=O)N4CCCc5cc(Cl)cc(F)c54)cn23)cn1` [Compound 17, methyl N-[5-[6-(6-chloro-8-fluoro-3,4-dihydro-2H-quinoline-1-carbonyl)imidazo[1,2-a]pyridin-3-yl]-2-pyridyl]carbamate], for which, in the assay with Phytophthora infestans, the pest or weed control at 200 ppm was at least 80%. The same compound had an inhibition of growth at 20 ppm in the assay with Pythium ultimum of at least 80%.
In turn, `COC(=O)Nc1ccc(-c2cnc3ccc(C(=O)N4CCCc5c(C(=O)OC)cccc54)cn23)cn1` [Compound 7, methyl 1-[3-[6-(methoxycarbonylamino)-3-pyridyl]imidazo[1,2-a]pyridine-6-carbonyl]-3,4-dihydro-2H-quinoline-5-carboxylate] displayed a pest or weed control at 200 ppm with Plasmopara viticola of at least 80%. In addition, in the assay with Pythium ultimum, the inhibition of growth at 20 ppm is at least 80%.
Take `COC(=O)Nc1ccc(-c2cnc3ccc(C(=O)N4CCCc5cc(OC)c(F)cc54)cn23)cn1` [Compound 63, methyl N-[5-[6-(7-fluoro-6-methoxy-3,4-dihydro-2H-quinoline-1-carbonyl)imidazo[1,2-a]pyridin-3-yl]-2-pyridyl]carbamate]: the inhibition of growth at 20 ppm in the assay with Pythium ultimum is at least 80%.
On the same count and under the same terms, the value for `COC(=O)Nc1ccc(-c2cnc3ccc(C(=O)N(C)c4ccc(Cl)cn4)cn23)cn1` [Compound 68, methyl N-[5-[6-[(5-chloro-2-pyridyl)-methyl-carbamoyl]imidazo[1,2-a]pyridin-3-yl]-2-pyridyl]carbamate] was at least 80%.
For `COC(=O)Nc1ccc(-c2cnc3ccc(C(=O)N4CC(O)Cc5ccccc54)cn23)cn1` (stereo not drawn) [Compound 43, methyl N-[5-[6-(3-hydroxy-3,4-dihydro-2H-quinoline-1-carbonyl)imidazo[1,2-a]pyridin-3-yl]-2-pyridyl]carbamate], in the assay with Phytophthora infestans, the pest or weed control at 200 ppm was at least 80%. For the same compound, in the assay with Pythium ultimum, the inhibition of growth at 20 ppm is at least 80%.
`COC(=O)Nc1ccc(-c2cnc3ccc(C(=O)N4CCCc5cc(F)c(F)cc54)cn23)cn1` [Compound 26, methyl N-[5-[6-(6,7-difluoro-3,4-dihydro-2H-quinoline-1-carbonyl)imidazo[1,2-a]pyridin-3-yl]-2-pyridyl]carbamate] came in with an inhibition of growth at 20 ppm in the assay on Pythium ultimum of at least 80%.
On the same count and under the same terms, the value for `COC(=O)Nc1ccc(-c2cnc3ccc(C(=O)N4CCCc5c(OC(F)F)cccc54)cn23)cn1` [Compound 58, methyl N-[5-[6-[5-(difluoromethoxy)-3,4-dihydro-2H-quinoline-1-carbonyl]imidazo[1,2-a]pyridin-3-yl]-2-pyridyl]carbamate] was at least 80%.
Consider `COC(=O)Nc1ccc(-c2cnc3ccc(C(=O)N(C)c4cccc(Cl)c4Cl)cn23)cn1` [Compound 39, methyl N-[5-[6-[(2,3-dichlorophenyl)-methyl-carbamoyl]imidazo[1,2-a]pyridin-3-yl]-2-pyridyl]carbamate], for which, in the assay on Plasmopara viticola, the pest or weed control at 200 ppm was at least 80%.
Turning to `COC(=O)Nc1ccc(-c2cnc3ccc(C(=O)N4CCCc5ccc(OC)cc54)cn23)cn1` [Compound 56, methyl N-[5-[6-(7-methoxy-3,4-dihydro-2H-quinoline-1-carbonyl)imidazo[1,2-a]pyridin-3-yl]-2-pyridyl]carbamate], in the assay with Pythium ultimum, the inhibition of growth at 20 ppm was at least 80%.
Still for that read-out and setting: then `COC(=O)Nc1ccc(-c2cnc3ccc(C(=O)N(C)c4ccccc4OC)cn23)cn1` [Compound 60, methyl N-[5-[6-[(2-methoxyphenyl)-methyl-carbamoyl]imidazo[1,2-a]pyridin-3-yl]-2-pyridyl]carbamate], with at least 80%.
